In patent US12048316B2, “Sweetener and flavor compositions, methods of making and methods of use thereof” (EPC Natural Products Co., Ltd., priority 2018, dated 2024):

Assays:
[1] = HPLC/MS quantitative evaluation: degradation of reaction partners and formation of MRI at various pH-conditions; assay type: physicochemical; conditions: pH = 7.0
Procedure: All samples were analyzed by HPLC/ISIS using following conditions.
Quantitative evaluation was performed using external standardization.

[2] = Assay to test DPPH radical-scavenging activity; assay type: biochemical; conditions: combinations of amino acids and Reb-A, 100° C.; less pronounced than glucose or xylose
Procedure: 1 mg 1,1-Diphenyl-2-picrylhydrazyl radical (DPPH)/ml ethanol, dilution to assay concentration were prepared in ethanol (40 μg/mL); Calibration samples were prepared with Ascorbic acid in a concentration of 0-10 μg/mL, as a negative control sample, water was used.
Samples in aqueous solution were used as such or diluted with water.
A 0.1 ml sample (or calibration standard) was mixed with 3.9 ml solution of DPPH (100 μMolar) and reacted while protected from light at room temperature for 30 min. Absorbance was determined at 517 nm against ethanol.
10 mM of amino acid and/or 10 mM sugar were dissolved in 10 ml 0.1 mM KH2PO4-buffer, pH=7.8
The samples were kept at 100° C. in sealed glass vials (Pyrex 15 ml with screw caps) for 0 (before reaction), 2.5 or 5.0 hours. Thereafter the samples were transferred to an ice water bath and cooled down to room temperature. These samples were diluted 1:10 and used for the test assay for anti-oxidant potential.

[3] = relative to sucrose (sugar, cane sugar); depends on the tested concentration; cited from earlier work

Row | SMILES | times sweeter than sucrose / sugar [3] | other results
1 | O=C[C@H](O)[C@@H](O)[C@H](O)[C@H](O)CO [Glu, Glucose] | – | % degradation ([1]; reaction Phe + Gluc): 4.6%
2 | C=C1C[C@@]23CC[C@H]4[C@@](C)(CCC[C@@]4(C)C(=O)O[C@@H]4O[C@H](CO)[C@@H](O)[C@H](O)[C@H]4O)[C@@H]2CC[C@]1(O[C@@H]1O[C@H](CO)[C@@H](O)[C@H](O[C@@H]2O[C@H](CO)[C@@H](O)[C@H](O)[C@H]2O)[C@H]1O[C@@H]1O[C@H](CO)[C@@H](O)[C@H](O)[C@H]1O)C3 [Reb-A, Rebaudioside A] | – | anti-oxidant properties (iron-III reduction, radical scavenging) [2]: substantial anti-oxidant properties
3 | C=C1C[C@@]23CC[C@H]4[C@@](C)(CCC[C@@]4(C)C(=O)O[C@@H]4O[C@H](CO)[C@@H](O)[C@H](O)[C@H]4O)[C@@H]2CC[C@]1(O[C@@H]1O[C@H](CO)[C@@H](O)[C@H](O)[C@H]1O)C3 [Rubusoside] | 200 times | –
4 | O=C[C@H](O)[C@@H](O)[C@H](O)CO [Xyl, xylose] | – | % degradation ([1]; reaction Phe + Xyl): 6.3%
5 | O=S(=O)([O-])NC1CCCCC1.[Na+] [sodium cyclamate] | about 30 times | –
6 | OC[C@H]1O[C@H](O[C@]2(CCl)O[C@H](CCl)[C@@H](O)[C@@H]2O)[C@H](O)[C@@H](O)[C@H]1Cl [sucralose] | about 600 times | –
